Like-named read-outs stand apart in the source and are kept apart here. Each block holds one molecule with its values, some of them ahead of it.
Assays:
HeLa1A1 cells = assay: BDMC-O-glucuronide excretion experiments in HeLa1A1 cells; type: cell-based, human
UGT1A1 = biological target: T1, UGT1A1 (Homo sapiens, UniProt P22309); type: biochemical
T1 sequence (P22309 26-533): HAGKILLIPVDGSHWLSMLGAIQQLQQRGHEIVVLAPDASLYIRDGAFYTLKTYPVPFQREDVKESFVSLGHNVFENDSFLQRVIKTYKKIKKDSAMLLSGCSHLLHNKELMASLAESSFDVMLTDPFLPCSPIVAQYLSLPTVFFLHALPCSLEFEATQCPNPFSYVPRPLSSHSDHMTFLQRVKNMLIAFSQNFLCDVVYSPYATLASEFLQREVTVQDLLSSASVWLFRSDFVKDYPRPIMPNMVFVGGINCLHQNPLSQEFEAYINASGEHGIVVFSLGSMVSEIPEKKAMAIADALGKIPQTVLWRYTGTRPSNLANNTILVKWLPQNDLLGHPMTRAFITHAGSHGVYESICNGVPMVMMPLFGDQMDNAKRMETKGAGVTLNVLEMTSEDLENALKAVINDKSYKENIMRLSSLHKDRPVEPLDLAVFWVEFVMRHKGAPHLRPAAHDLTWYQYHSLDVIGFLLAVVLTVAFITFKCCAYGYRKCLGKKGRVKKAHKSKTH

HeLa1A1 cell lysate = biological target: T2, HeLa1A1 cell lysate (Homo sapiens, UniProt P22309); type: biochemical
T2 sequence (P22309 26-533): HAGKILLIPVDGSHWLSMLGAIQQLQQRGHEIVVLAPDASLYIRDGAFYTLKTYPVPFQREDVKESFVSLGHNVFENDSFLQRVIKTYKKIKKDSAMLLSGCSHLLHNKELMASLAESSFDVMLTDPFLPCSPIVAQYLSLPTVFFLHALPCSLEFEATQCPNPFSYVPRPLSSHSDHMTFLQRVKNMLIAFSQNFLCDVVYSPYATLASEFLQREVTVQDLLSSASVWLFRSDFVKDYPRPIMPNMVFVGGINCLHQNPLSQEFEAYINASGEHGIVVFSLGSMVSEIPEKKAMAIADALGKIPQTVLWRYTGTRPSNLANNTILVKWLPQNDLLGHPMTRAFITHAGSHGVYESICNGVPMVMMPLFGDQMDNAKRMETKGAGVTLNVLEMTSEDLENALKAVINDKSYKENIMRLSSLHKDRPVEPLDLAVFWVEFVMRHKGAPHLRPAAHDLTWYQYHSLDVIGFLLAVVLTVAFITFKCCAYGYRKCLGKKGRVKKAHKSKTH

[1] = substrate: O=C(/C=C/c1ccc(O)cc1)CC(=O)/C=C/c1ccc(O)cc1; assay: cells, lysate or membranes named; conditions: pH 7.4, 37.0 °C
[2] = other: UGT1A1 enzyme supplemented with UDPGA
[3] = other: HeLa1A1 cell lysate supplemented with UDPGA

Effect on glucuronidation of BDMC by UGT1A1 enzyme (UGT1A1; inhibitor 5 and 20 μM): inhibit
Effect on glucuronidation of BDMC by HeLa1A1 cell lysate (HeLa1A1 cell lysate; inhibitor 5 and 20 μM): inhibit
Molecule: OCCN(CCO)c1nc(N2CCCCC2)c2nc(N(CCO)CCO)nc(N3CCCCC3)c2n1 [DIPY, dipyridamole]
Increase of intracellular levels of BDMC-O-glucuronide (HeLa1A1 cells; inhibitor 5 and 20 μM, 5 μM BDMC, cells collected at 2 h, versus control): 20.5–25.4%
Decrease of BDMC-O-glucuronide excretion (HeLa1A1 cells; inhibitor 5 and 20 μM, 5 μM BDMC, versus control): 8.4–36.5%

Molecule: CC(C)=CCC[C@](C)(O)[C@H]1CC[C@]2(C)[C@@H]1[C@H](O)C[C@@H]1[C@@]3(C)CC[C@H](O)C(C)(C)[C@@H]3[C@@H](O)C[C@]12C [protopanaxatriol]
Effect of UGT1A1 inhibitors on rates of BDMC-O-glucuronidation (UGT1A1; nilotinib 10 μM, protopanaxatriol 500 μM, glycyrrhetinic acid 20 μM): altered

Effect on glucuronidation of BDMC by UGT1A1 (UGT1A1; LTC4 0.05 and 0.2 μM): no influences
Effect on glucuronidation of BDMC by HeLa1A1 cell lysate (HeLa1A1 cell lysate; LTC4 0.05 and 0.2 μM): no influences
Molecule: CCCCC/C=C\C\C=C/C=C/C=C/[C@@H](SC[C@H](NC(=O)CC[C@H](N)C(=O)O)C(=O)NCC(=O)O)[C@@H](O)CCCC(=O)O [LTC4, leukotriene C4]
Effect on excretion of BDMC-O-glucuronide (HeLa1A1 cells; LTC4 0.05 and 0.2 μM): did not show any effects
Effect on formation of BDMC-O-glucuronide (HeLa1A1 cells; LTC4 0.05 and 0.2 μM): did not show any effects

B1: UGT1A1 (Homo sapiens) (protein)
chain: HAGKILLIPVDGSHWLSMLGAIQQLQQRGHEIVVLAPDASLYIRDGAFYTLKTYPVPFQREDVKESFVSLGHNVFENDSFLQRVIKTYKKIKKDSAMLLSGCSHLLHNKELMASLAESSFDVMLTDPFLPCSPIVAQYLSLPTVFFLHALPCSLEFEATQCPNPFSYVPRPLSSHSDHMTFLQRVKNMLIAFSQNFLCDVVYSPYATLASEFLQREVTVQDLLSSASVWLFRSDFVKDYPRPIMPNMVFVGGINCLHQNPLSQEFEAYINASGEHGIVVFSLGSMVSEIPEKKAMAIADALGKIPQTVLWRYTGTRPSNLANNTILVKWLPQNDLLGHPMTRAFITHAGSHGVYESICNGVPMVMMPLFGDQMDNAKRMETKGAGVTLNVLEMTSEDLENALKAVINDKSYKENIMRLSSLHKDRPVEPLDLAVFWVEFVMRHKGAPHLRPAAHDLTWYQYHSLDVIGFLLAVVLTVAFITFKCCAYGYRKCLGKKGRVKKAHKSKTH
Km [1, 2]: 5.99 ± 0.83 µM
Vmax [1, 2]: 0.00141 µmol/min/mg
Vmax/Km [1, 2]: 235 µL/min/mg

B2: HeLa1A1 cell lysate (Homo sapiens) (protein)
chain: HAGKILLIPVDGSHWLSMLGAIQQLQQRGHEIVVLAPDASLYIRDGAFYTLKTYPVPFQREDVKESFVSLGHNVFENDSFLQRVIKTYKKIKKDSAMLLSGCSHLLHNKELMASLAESSFDVMLTDPFLPCSPIVAQYLSLPTVFFLHALPCSLEFEATQCPNPFSYVPRPLSSHSDHMTFLQRVKNMLIAFSQNFLCDVVYSPYATLASEFLQREVTVQDLLSSASVWLFRSDFVKDYPRPIMPNMVFVGGINCLHQNPLSQEFEAYINASGEHGIVVFSLGSMVSEIPEKKAMAIADALGKIPQTVLWRYTGTRPSNLANNTILVKWLPQNDLLGHPMTRAFITHAGSHGVYESICNGVPMVMMPLFGDQMDNAKRMETKGAGVTLNVLEMTSEDLENALKAVINDKSYKENIMRLSSLHKDRPVEPLDLAVFWVEFVMRHKGAPHLRPAAHDLTWYQYHSLDVIGFLLAVVLTVAFITFKCCAYGYRKCLGKKGRVKKAHKSKTH
Km [1, 3]: 7.33 ± 0.83 µM
Vmax [1, 3]: 0.0012 ± 4.99e-05 µmol/min/mg
Vmax/Km [1, 3]: 164 ± 19.8 µL/min/mg

Reference: PMC7383220 (BioFactors (Oxford, England), 2018)
